Results on two compounds are retold here after paper PMC3233689 (The Journal of neuroscience : the official journal of the …, 2011).

One assay deals with T1, RDL receptor (WT) (Drosophila melanogaster, UniProt P25123).
T1 sequence (P25123 45-606): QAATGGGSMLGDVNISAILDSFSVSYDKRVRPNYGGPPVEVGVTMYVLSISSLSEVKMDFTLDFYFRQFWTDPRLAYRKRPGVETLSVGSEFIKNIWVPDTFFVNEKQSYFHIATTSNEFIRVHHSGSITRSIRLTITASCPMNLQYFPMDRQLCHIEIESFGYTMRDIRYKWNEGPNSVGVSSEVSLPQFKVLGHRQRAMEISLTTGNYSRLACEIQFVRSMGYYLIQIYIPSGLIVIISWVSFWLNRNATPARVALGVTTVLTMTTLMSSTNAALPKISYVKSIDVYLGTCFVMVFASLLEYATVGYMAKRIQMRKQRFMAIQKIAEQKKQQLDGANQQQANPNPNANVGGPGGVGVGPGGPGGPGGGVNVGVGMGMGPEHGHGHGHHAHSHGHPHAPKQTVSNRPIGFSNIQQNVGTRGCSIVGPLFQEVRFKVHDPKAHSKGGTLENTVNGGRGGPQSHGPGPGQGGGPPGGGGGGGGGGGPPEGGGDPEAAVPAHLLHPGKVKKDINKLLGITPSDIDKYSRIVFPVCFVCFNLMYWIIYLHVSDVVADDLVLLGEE
The assay is described as follows: GABA-induced currents, voltage clamp of Xenopus oocytes expressing wild type RDL. The assay is classed as cell-based. The note with it: Hill coefficient, mean ± SEM.

A further assay has as its target RDL receptor F206A (Drosophila melanogaster, UniProt P25123, F206A). Description: GABA-induced currents in oocytes, RDL F206A. The note with it: Phe206 substituted with Ala, compared to WT. Type of assay: cell-based.
Another assay concerns the target RDL receptor F206Y (Drosophila melanogaster, UniProt P25123, F206Y). Description: GABA-induced currents in oocytes, RDL F206Y. The assay is classed as cell-based.
A further assay has as its target RDL receptor Y254A (Drosophila melanogaster, UniProt P25123, Y254A). Description: GABA-induced currents in oocytes, RDL Y254A. The assay is classed as cell-based. The note with it: Tyr254Ala receptors, GABA up to 100 mM.
The next assay addresses RDL receptor Y254F (Drosophila melanogaster, UniProt P25123, Y254F). Description: GABA-induced currents in oocytes, RDL Y254F. Type of assay: cell-based.
The target of a further assay is RDL receptor F206Y/Y254F (Drosophila melanogaster, UniProt P25123, F206Y/Y254F). The assay is described as follows: GABA-induced currents in oocytes, RDL F206Y/Y254F. The assay is classed as cell-based. The note with it: Hill coefficient.
Chain of RDL receptor F206Y/Y254F (P25123 45-606 F206Y/Y254F): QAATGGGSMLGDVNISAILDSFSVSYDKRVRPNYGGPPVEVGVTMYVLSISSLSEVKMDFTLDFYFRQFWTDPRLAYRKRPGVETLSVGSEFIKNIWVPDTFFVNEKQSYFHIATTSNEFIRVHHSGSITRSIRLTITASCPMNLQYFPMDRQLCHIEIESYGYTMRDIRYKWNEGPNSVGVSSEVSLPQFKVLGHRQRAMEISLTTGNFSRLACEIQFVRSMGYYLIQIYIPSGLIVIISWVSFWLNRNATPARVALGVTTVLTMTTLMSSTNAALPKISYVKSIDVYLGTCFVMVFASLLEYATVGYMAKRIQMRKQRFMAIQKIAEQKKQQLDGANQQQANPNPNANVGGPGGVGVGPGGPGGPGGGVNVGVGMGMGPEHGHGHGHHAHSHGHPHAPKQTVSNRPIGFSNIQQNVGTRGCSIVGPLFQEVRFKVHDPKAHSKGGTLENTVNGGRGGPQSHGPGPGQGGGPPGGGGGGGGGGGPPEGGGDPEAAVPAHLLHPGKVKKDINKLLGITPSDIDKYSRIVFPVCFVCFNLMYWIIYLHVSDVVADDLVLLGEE
In a further assay the target is RDL receptor F146A (Drosophila melanogaster, UniProt P25123, F146A). Description: GABA-induced currents in oocytes, RDL F146A. Type of assay: cell-based.
Chain of RDL receptor F146A (P25123 45-606 F146A): as the sequence (P25123 45-606 F206Y/Y254F) above, with F102A, Y162F, F210Y counted along it
The test system of assay [1] is RDL mutant (TAG) mRNA without aminoacylated tRNA. Type of assay: cell-based, Drosophila. The note with it: 5 mM GABA; mutant mRNA alone or with tRNA-dCA with no amino acid attached.
For another assay, the system named is RDL receptor F206-FPhe. The note with it: Hill coefficient, GABA.
The test system of a further assay is RDL receptor F206-F2Phe. The note with it: Hill coefficient, GABA.
A further assay has as its system RDL receptor F206-F3Phe. The note with it: Hill coefficient, GABA.
For a further assay, the system named is RDL receptor Y254-FPhe. The note with it: Hill coefficient, GABA.
The subject of another assay is RDL receptor Y254F2-Phe. The note with it: Hill coefficient, GABA.
In a further assay the test system is RDL receptor Y254F3-Phe. The note with it: Hill coefficient, GABA.
The next assay relates to RDL receptor F146F3Phe. The note with it: Hill coefficient, GABA.
Another assay deals with GABAA receptor. The note with it: GABA-activated GABAA receptor; ref Padgett et al., 2007; cited from earlier work.
In another assay the test system is GABAC receptor. The note with it: GABA-activated GABAC receptor; ref Lummis et al., 2005; cited from earlier work.
In the next assay the test system is RDL receptor. The note with it: homomers in Xenopus oocytes; ref Zhang et al., 1994; cited from earlier work.

Chain of RDL receptor F206Y (P25123 45-606 F206Y): as the sequence (P25123 45-606 F206Y/Y254F) above, with F210Y counted along it
Chain of RDL receptor Y254F (P25123 45-606 Y254F): as the sequence (P25123 45-606 F206Y/Y254F) above, with Y162F counted along it
Chain of RDL receptor F206A (P25123 45-606 F206A): as the sequence (P25123 45-606 F206Y/Y254F) above, with Y162A, F210Y counted along it
Chain of RDL receptor Y254A (P25123 45-606 Y254A): as the sequence (P25123 45-606 F206Y/Y254F) above, with Y162F, F210A counted along it

As to `NCCCC(=O)O` [GABA], the nH at RDL receptor (WT) worked out at 1.4 ± 0.2; at RDL receptor F206Y (Hill coefficient, F206Y), 2.2 ± 0.3; at RDL receptor Y254F (Hill coefficient, Y254F), 2.1 ± 0.4; at RDL receptor F206Y/Y254F, 1.9 ± 0.5; at RDL receptor F146A (Hill coefficient, GABA, F146A), 2.1 ± 0.2; in the assay with RDL receptor F206-FPhe it was 1.8 ± 0.3. Also, the nH was 1.8 ± 0.3 in the assay on RDL receptor F206-F2Phe; 2.0 ± 0.4 in the assay with RDL receptor F206-F3Phe; 1.3 ± 0.4 in the assay with RDL receptor Y254-FPhe; 1.1 ± 0.2 in the assay on RDL receptor Y254F2-Phe; 1.2 ± 0.3 with RDL receptor Y254F3-Phe; 1.4 ± 0.4 in the assay on RDL receptor F146F3Phe. In addition, the “increase in EC50” value was approximately 50 fold on RDL receptor F206A and approximately 4 fold at RDL receptor Y254F (Tyr254 substituted with Phe, compared to WT). The “decrease in EC50 compared to WT” value on RDL receptor F206Y (Phe206Tyr) was approximately 200 fold. Besides, at RDL receptor Y254A, the “response to GABA” value was “did not respond”. The “increase in GABA EC50” value on RDL receptor F146A (Phe146 substituted with Ala, compared to WT) is given as less than 4 fold. The “currents in response to GABA” value in assay [1] was “No currents”. In addition, the “slope of fluorination plot” value is on record as 0.29 with GABAA receptor and 0.21 in the assay on GABAC receptor.
picrotoxin: the “inhibition of RDL receptors” value in the assay with RDL receptor was “inhibited”.
